The text below walks through data of PMC6173696, “Structural properties of a haemophore facilitate targeted elimination of the pathogen Porphyromonas gingivalis” (Nature Communications, 2018).

Test [1] has as its target T1, HusA (Porphyromonas gingivalis, UniProt Q7MSY3).
T1 sequence (Q7MSY3 24-218): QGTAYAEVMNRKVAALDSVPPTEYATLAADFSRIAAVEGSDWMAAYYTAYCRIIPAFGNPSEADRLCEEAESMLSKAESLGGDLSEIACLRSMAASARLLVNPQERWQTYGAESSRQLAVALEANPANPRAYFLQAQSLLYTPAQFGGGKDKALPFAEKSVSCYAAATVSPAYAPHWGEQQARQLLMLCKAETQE
As to the kind of experiment: Tryptophan fluorescence quenching assay, HusA wild-type. The class given is binding. As to conditions: HusA wild-type 1 µM, fit to 1:1 binding model; read-out: Kd. On the procedure: The quenching of intrinsic tryptophan fluorescence of HusA upon porphyrin additions was measured using a Carey Eclipse Fluorescence Spectrophotometer (Agilent) set to a photo multiplier effect (PME) of 850. A 5-mm path length quartz cuvette was used and all spectra were acquired at room temperature. Excitation was set to 295 nm and emission was measured from 300 nm to 500 nm using excitation/emission slit widths of 5 nm. Binding assays were performed at a protein concentration of 1 μM HusA in standard buffer at a working volume of 0.5 mL. […] The fluorescence quenching of HusA by PPIX was investigated in a similar manner with the following difference: the fluorescence intensities of ten 1 μM HusA samples were measured each with increasing amounts of PPIX after a 2-h incubation period to allow equilibrium to be reached. See Supplementary Methods for correction for inner filter effect and curve fitting. […]
Correction of inner filter effect and curve fitting in tryptophan fluorescence quenching assays The concentration of NATA was chosen such that the raw fluorescence intensity was similar to the […] concentrations of HusA and mutants used. The same molarity titrants of porphyrin were titrated into NATA as were added into HusA in the control reactions. Fluorescence intensity was scaled with respect to the starting florescence and corrected for the inner filter effect. Fluorescence at 335 nm was used to fit binding curves.
The correction method is based on Fonin AV., et al.26, noting that a Cary Eclipse spectrofluorimeter […]
performed to measure the contribution to the decrease in fluorescence due to the inner filter effect and this effect was scaled to the starting fluorescence values as fractional changes. The measured fluorescence at each titration point for each of the porphyrin titrations into protein was then adjusted for this contribution. Fluorescence at 335 nm was used to fit binding curves. Association constant, Ka, was fitted using the following equation in Origin, assuming a single binding site. A dissociation constant, Kd, was calculated by taking the inverse of the Ka.
Xobs = XA×f A+XAB×f AB (1) where XA is the corrected fluorescence, fA=1-fAB, fAB=x/(Bt), x=(-b-sqrt(b2-4×c))/2, b=-(1/Ka+At+Bt), c=Bt×At, Bt=total concentration of protein, At=total concentration of ligand.
To aid comparison of the different titrations, the corrected fluorescence was scaled to the starting fluorescence in the absence of porphyrins (i.e. all fluorescence curves have a starting value of one

The subject of test [2] is P. gingivalis wild-type W83. Description: Checkerboard / broth micro-dilution assay (MIC, MBC), wild-type W83. The class given is cell-based, Porphyromonas gingivalis. The following applies: Porphyromonas gingivalis; planktonic W83, 24 h, anaerobic; read-out: minimal inhibitory concentration. An excerpt: Fig. 5 A prototype DPIX-conjugated antibiotic binds HusA and inhibits P. gingivalis. a The chemical structure of the deuteroporphyrin-lysine-metronidazole adduct, P8. b NMR signal intensity changes (black) and ^1H^N CSPs (red/green) for HusA upon addition of P8 (measured from ^15N-HSQC spectra shown in Supplementary Figure 21). c In silico docking of P8 to the energy minimized structure of HusA (conformer set 1), with residues experiencing NMR signal loss (orange) or CSPs (red/green) mapped to the structure (colouring as described in Fig. 2d). d Scaled and corrected fluorescence at 335 nm during titration of 1 μM of HusA with increasing concentrations of P8, haemin or DPIX. e Comparison of P8 inhibitory effect towards P. gingivalis wild-type W83 and husA mutants using checkerboard analysis. Serial dilutions of antibiotics (horizontal axis) were applied to a 96-well plate with different P. gingivalis strains (vertical axis). Serial dilutions of DPIX were also supplemented into wild-type W83 group to evaluate the competitive effect against P8. Absorption at OD600 of each well was recorded after 24 h of incubation. The OD600 of each strain grown in the absence of antibiotics was defined as 100% growth, which was applied to normalise the reading collected from other wells. The normalised percentage of each well was plotted in the checkerboard. Metronidazole alone and in combination with PPIX or DPIX was applied as control. f Intracellular killing assay of P8 antibiotics. Gingival H413 epithelial cells were infected by P. gingivalis W83 and then treated with P8 at various concentrations. Recovered bacteria were determined by CFU count. Metronidazole and DMSO were used as control. Three independent experiments with triplicate assays were conducted. […]

Test [3] has as its system P. gingivalis wild-type W83. Description: Checkerboard analysis of metronidazole with PPIX or DPIX, iron-replete and -limited. The class given is cell-based, Porphyromonas gingivalis. The following applies: iron replete or iron-limited conditions. The procedure: Supplementary Figure 24. Comparison of metronidazole inhibitory effect towards P. gingivalis wild-type W83 in the presence of PPIX or DPIX under iron-replete and -limited conditions by checkerboard analysis. Serial dilutions of antibiotics along the horizontal axis were applied to a 96-well plate with P. gingivalis W83. Two pre-determined concentrations of PPIX or DPIX were supplemented to evaluate the synergistic effect between metronidazole and porphyrins. Dipyridyl (at 100 µM) was also applied to explore the potential effect under iron-replete and iron-depleted conditions. Absorption at OD600 of each well was recorded after 24 h of incubation. The OD600 of each strain grown in the absence of antibiotics was defined as 100% growth which was applied to normalise the reading collected from other wells. The normalised percentage of each well was plotted […]
(1 picture or pasted object on this page, not shown here)

Test [4] deals with T1, HusA. As to the kind of experiment: UV-visible absorption spectral analysis of ligand interaction with HusA. The class given is binding. On the procedure: All absorbance spectra were recorded at room temperature using 10-mm quartz cuvettes on a Shimadzu UV-1601 or Jasco V-630 spectrophotometer. Mixtures of HusA/mutant with porphyrins were prepared by dissolving porphyrin stocks in standard buffer to a final concentration of 5–20 μM with a 1–1.5 molar ratio of protein to porphyrin, as specified in the relevant figure legends. PPIX:HusA mixtures were prepared by incremental addition of 2–4 μM HusA with a 10–15 min wait after each addition of HusA.

A further test concerns P. gingivalis W83. Description: Growth of starved W83 with titration of dipyridyl. The class given is cell-based, Porphyromonas gingivalis. An excerpt:
This manuscript further describes HusA protein. Although very sophisticated methods were used and interesting results were gained, this study requires more work to be convincing. The conclusions drawn (mainly regarding the possibility that porphyrin-metronidazole conjugate could be used to treat P. gingivalis infection) are very strong but not supported enough by the data presented.
- How is this possible that P. gingivalis grows in the culture medium lacking iron (dipyridyl added) and supplemented with porphyrins without metal inside the porphyrin ring (Fig 1, panel A)? What serves as an iron source allowing P. gingivalis to grow? Were the bacteria starved before these experiments? Please explain this more carefully.
Response: We agree with the reviewer that P. gingivalis requires both iron and porphyrin to survive. Iron is naturally present in the complex medium, enriched tryptic soy broth (eTSB), used in this study. The iron concentration of TSB medium has been previously determined at 0.74 µg/mL by atomic absorption spectrophotometry (de Oliverira Moreira L., et al., 2003 AEM) which requires approximately 500 µM dipyridyl to chelate all available iron in the medium (Scharfman AH 1996 I&I). The dipyridyl used in this study is 100 µM and the remaining iron provided by the TSB medium is sufficient to support P. gingivalis growth. […]

In the case of `CC1=Cc2cc3[n-]c(cc4[n-]c(cc5nc(cc1n2)C=C5C)c(C)c4CCC(=O)[O-])c(CCC(=O)[O-])c3C.[Fe+2].[H+].[H+]` [Fe(III)DPIX, iron(III) deuteroporphyrin IX], the Kd on HusA [1] turned out to be 0.22 ± 0.05 µM.

With `Cc1ncc([N+](=O)[O-])n1CCO` [Metronidazole, metronidazole], in test [2], the MIC is 5 to 10 µM.

As for `C=CC1=C(C)c2cc3[nH]c(cc4nc(cc5[nH]c(cc1n2)c(C)c5CCC(=O)O)C(CCC(=O)O)=C4C)c(C)c3C=C` [PPIX, protoporphyrin-IX], the Kd on HusA [1] was 1.9 ± 0.6 µM. In addition, the “sensitisation of P. gingivalis cells towards metronidazole” value in test [3] is listed as “Neither PPIX nor DPIX sensitised”.

`C=CC1=C(C)/C(=C/c2[nH]c(Cc3[nH]c(/C=C4\NC(=O)C(C)=C4C=C)c(C)c3CCC(=O)O)c(CCC(=O)O)c2C)NC1=O` [bilirubin]: the “interaction with HusA by UV-visible absorption” value on HusA [4] is recorded as “no interaction”.

As for `C=CC1=C(C)/C(=C/C2=NC(=C\c3[nH]c(/C=C4\NC(=O)C(C)=C4C=C)c(C)c3CCC(=O)O)/C(CCC(=O)O)=C2C)NC1=O` [biliverdin], the “interaction with HusA by UV-visible absorption” value on HusA [4] is “no interaction”.

On to `c1ccc(-c2ccccn2)nc1` [dipyridyl, 2,2’-dipyridyl], for which the “dipyridyl concentration at which growth recovery after starvation was observed” value in the test on P. gingivalis W83 is listed as “up to 200 µM”. For the same compound, the “dipyridyl concentration at which P. gingivalis failed to recover” value with P. gingivalis W83 (W83 after starvation) is listed as at least 500 µM.
